ChEMBL document CHEMBL1201862, “PubChem BioAssay data set” (2004)
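Compound exposure: 48 hours, 5 concentrations, 96-well plates. GI50: concentration for 50% inhibition of growth.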 Activity calls are given as the source filed them. Rule as the data show it: active = GI50 up to about 1.1 µM and inactive = higher.

How the values were obtained:
Assay in all cases: NCI-60 cell line screen, 48 h
[1] = tested on: LXFL 529
[2] = tested on: TK-10
[3] = tested on: Malme-3M
[4] = tested on: A498
[5] = tested on: KM-20L2
[6] = tested on: HT-29
[7] = tested on: K562
[8] = tested on: SK-OV-3
[9] = tested on: CCRF-CEM
[10] = tested on: UACC-62
[11] = tested on: SNB-78
[12] = tested on: RXF 631
[13] = tested on: HL-60
[14] = tested on: XF498
[15] = tested on: HOP-62
[16] = tested on: MOLT-4
[17] = tested on: SF-295
[18] = tested on: DMS-273
[19] = tested on: KM12
[20] = tested on: IGROV-1
[21] = tested on: CAKI-1
[22] = tested on: OVCAR-4
[23] = tested on: UACC-257
[24] = tested on: RXF 393
[25] = tested on: HOP-92
[26] = tested on: SN12C
[27] = tested on: SF-539
[28] = tested on: 786-0
[29] = tested on: OVCAR-8
[30] = tested on: ACHN
[31] = tested on: OVCAR-5
[32] = tested on: UO-31
[33] = tested on: SF-268
[34] = tested on: NCI-H226
[35] = tested on: SNB-19
[36] = tested on: DLD-1
[37] = tested on: SNB-75
[38] = tested on: COLO 205
[39] = tested on: M14
[40] = tested on: EKVX
[41] = tested on: OVCAR-3
[42] = tested on: NCI-H522
[43] = tested on: M19-MEL
[44] = tested on: SK-MEL-5
[45] = tested on: SK-MEL-2
[46] = tested on: NCI-H460
[47] = tested on: SK-MEL-28
[48] = tested on: RPMI-8226
[49] = tested on: U-251
[50] = tested on: NCI-H23
[51] = tested on: HCC 2998
[52] = tested on: LOX IMVI
[53] = tested on: A549
[54] = tested on: DMS-114
[55] = tested on: SW-620

Measured: GI50

FC(F)(F)c1cc(C2SCc3nc4ccccc4n32)cc(C(F)(F)F)c1 (stereo not drawn)
inactive: [1] > 100 µM | [2] > 100 µM | [3] 2.92 µM | [4] > 100 µM | [5] 3.37 µM | [6] 3.46 µM | [7] 2.97 µM | [8] 20.5 µM | [9] 4.51 µM | [10] 3.87 µM | [11] 36.7 µM | [12] 10.6 µM | [13] 3.87 µM | [14] 8.45 µM | [15] 5.5 µM | [16] 2.97 µM | [17] 5 µM | [18] 3.65 µM | [19] 4.68 µM | [20] 8.13 µM | [21] 4.24 µM | [22] > 100 µM | [23] > 100 µM | [24] 14.8 µM | [25] 20.4 µM | [26] 2.9 µM | [27] 24.6 µM | [28] 11.4 µM | [29] 10.3 µM | [30] > 100 µM | [31] > 100 µM | [32] > 100 µM | [33] 44.9 µM | [34] 6.41 µM | [35] 76 µM

CCc1cccc(CC)c1NC(=O)C1=CNC(C)=C(C(=O)Nc2c(CC)cccc2CC)C1c1ccc(O)c(OC)c1 (stereo not drawn)
inactive: [1] 27.1 µM | [2] 47.6 µM | [36] 47 µM | [3] 28.1 µM | [4] 24.7 µM | [37] 44.7 µM | [5] 49.5 µM | [38] 56.2 µM | [6] 31.1 µM | [7] 31.4 µM | [39] 34.5 µM | [40] 35.2 µM | [8] > 100 µM | [9] 21.5 µM | [41] 19 µM | [11] 28.7 µM | [12] 37.9 µM | [42] 26.4 µM | [43] 34.4 µM | [13] 26.5 µM | [14] 26.6 µM | [15] 33.3 µM | [44] 32.3 µM | [16] 22.3 µM | [17] 29 µM | [19] 24.6 µM | [45] 26.2 µM | [46] 31.6 µM | [47] 33.3 µM | [20] 36.8 µM | [21] 39.8 µM | [22] 23.9 µM | [23] 28.2 µM | [24] 25.3 µM | [48] 16.8 µM | [25] 42.4 µM | [49] 12.4 µM | [50] 36.6 µM | [26] 57.8 µM | [27] 17.6 µM | [51] 47.4 µM | [52] 31.5 µM | [28] 34.4 µM | [29] 33.7 µM | [30] 32.5 µM | [31] 54.8 µM | [53] 31.6 µM | [32] 29.1 µM | [33] 40.6 µM | [34] 30.1 µM | [54] 24.5 µM | [55] 30.3 µM | [35] 54.1 µM
